Biological target: T1, human PDE4B1 (Homo sapiens, UniProt Q07343)
T1 construct: host or cells: Sf9 cells
Experiment: cAMP HTRF assay to determine the activity of hPDE4B1
Type: biochemical
Settings: for inhibition at 1 µM / Inhibition at 1 μM test concentration [%]: Percentage inhibition of PDE4B at 1 μM test concentration; for IC50: dose response measurements with eight concentrations, reported as ranges, read-out: IC50
Method: cAMP HTRF® Assay to Determine the Activity of hPDE4B1
The inhibiting effect of the compounds on the enzyme activity of human PDE4B1 was measured by the quantification of 5′-adenosine monophosphate (5′-AMP), which is formed from 3′,5′-cyclic adenosine monophosphate (cAMP). Human recombinant enzyme, expressed in Sf9 cells, and the HTRF (homogeneous time-resolved fluorescence) detection method were used in the assay.
The test compound or water (control) was mixed with the human recombinant PDE4B1 enzyme (4.8 U) in a buffer consisting of 44.4 mM tris-HCl, 5.28 mM MgCl2, 2.64 mM DTT and 0.044% Tween 20 (pH 7.8). After adding the cAMP enzyme substrate (final concentration 40 nM), the mixture was incubated for 30 minutes at room temperature. Then a fluorescence acceptor (Dye2 marked with cAMP), a fluorescence donor (anti-cAMP antibody marked with a europium cryptate) and the non-specific phosphodiesterase inhibitor IBMX (3-isobutyl-1-methylxanthine; final concentration 1 mM) were added. After 60 minutes the fluorescence transfer, which correlates with the amount of remaining cAMP, was measured with a microplate reader (Rubystar, BMG) at λex=337 nm, λem=620 nm and λem=665 nm. The enzyme activity was calculated from the quotient formed from the measured signal at 665 nm and that at 620 nm. The result was expressed as the percentage inhibition of enzyme activity of the control (without PDE4 inhibitor). The enzyme was omitted for measurement of the basal control.
IC50 values (IC50=concentration causing a half-maximal inhibition of control specific activity) were derived from dose response measurements with eight different concentrations (n=2; N=1-2).
Literature: N. Saldou et al., Comparison of recombinant human PDE4 isoforms: interaction with substrate and inhibitors, Cell. Signal. Vol. 10, No. 6, 427-440, 1998

T1 sequence (Q07343 whole entry): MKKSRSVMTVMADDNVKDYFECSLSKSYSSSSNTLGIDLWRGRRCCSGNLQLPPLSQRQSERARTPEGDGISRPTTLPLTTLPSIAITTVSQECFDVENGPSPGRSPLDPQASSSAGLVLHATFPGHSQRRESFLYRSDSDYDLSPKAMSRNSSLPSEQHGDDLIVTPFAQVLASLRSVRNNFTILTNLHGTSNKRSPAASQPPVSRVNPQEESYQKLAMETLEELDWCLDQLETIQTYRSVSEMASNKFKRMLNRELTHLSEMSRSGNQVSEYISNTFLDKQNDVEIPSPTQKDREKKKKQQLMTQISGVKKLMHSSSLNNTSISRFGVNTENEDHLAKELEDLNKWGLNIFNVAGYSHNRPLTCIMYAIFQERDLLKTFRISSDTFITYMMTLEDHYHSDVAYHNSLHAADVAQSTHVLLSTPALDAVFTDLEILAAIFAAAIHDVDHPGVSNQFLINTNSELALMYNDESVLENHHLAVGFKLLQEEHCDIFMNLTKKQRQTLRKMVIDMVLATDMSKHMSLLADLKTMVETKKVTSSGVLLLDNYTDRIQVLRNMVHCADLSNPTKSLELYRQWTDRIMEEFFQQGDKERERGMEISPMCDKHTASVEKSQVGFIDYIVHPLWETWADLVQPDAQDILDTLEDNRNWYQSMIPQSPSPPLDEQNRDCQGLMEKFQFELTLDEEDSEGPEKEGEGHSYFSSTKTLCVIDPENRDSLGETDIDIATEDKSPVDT

| inhibition at 1 µM [%] | IC50 [µM] | Inhibition at 1 μM test concentration [%] | Compound |
| --- | --- | --- | --- |
| 92 | < 0.1 | – | O=C(O)Cc1ccc2c(c1)CCN2c1nc(-c2ccc(Cl)s2)nc2c1CSC2 [Compound No. 1-20, 2-(1-(2-(5-Chlorothiophen-2-yl)-5,7-dihydrothieno[3,4-d]pyrimidin-4-yl)indolin-5-yl)acetic acid] |
| – | – | 88 | O=C(O)Cc1ccc2c(c1)CCN2c1nc(-c2ccc(Cl)s2)nc2c1C[S+]([O-])C2 (stereo not shown) [Compound No. 1-21, 2-(1-(2-(5-Chlor-thiophen-2-yl)-6-oxo-5,7-dihydro-thieno[3,4-d]pyrimidin-4-yl)-2,3-dihydro-1H-indol-5-yl)acetic acid] |
| – | – | 115 | O=C(O)Cc1ccc2c(c1)CCN2c1nc(-c2ccc(Cl)s2)nc2c1CS(=O)(=O)C2 [Compound No. 1-22, 2-(1-(2-(5-Chlor-thiophen-2-yl)-6,6-dioxo-5,7-dihydro-thieno[3,4-d]pyrimidin-4-yl)-2,3-dihydro-1H-indol-5-yl)acetic acid] |
| 93 | < 0.1 | – | O=C(O)Cc1ccc2c(c1)CCN2c1nc(-c2ccc(F)s2)nc2c1CSC2 [Compound No. 1-23, 2-(1-(2-(5-Fluorothiophen-2-yl)-5,7-dihydrothieno[3,4-d]pyrimidin-4-yl)indolin-5-yl)acetic acid] |
| 111 | < 0.1 | – | O=C(O)Cc1ccc2c(c1)CCN2c1nc(-c2ccc(F)s2)nc2c1C[S+]([O-])C2 (stereo not shown) [Compound No. 1-24, 2-(1-(2-(5-Fluorothiophen-2-yl)-6-oxido-5,7-dihydrothieno[3,4-d]pyrimidin-4-yl)indolin-5-yl)acetic acid] |
| 103 | < 0.1 | – | O=C(O)Cc1ccc2c(c1)CCN2c1nc(-c2ccc(F)s2)nc2c1CS(=O)(=O)C2 [Compound No. 1-25, 2-(1-(2-(5-Fluoro-thiophen-2-yl)-6,6-dioxo-5,7-dihydro-thieno[3,4-d]pyrimidin-4-yl)-2,3-dihydro-1H-indol-5-yl)acetic acid] |
| 63 | 0.1 to 1 | – | COc1ccc(-c2nc3c(c(N4CCc5cc(CC(=O)O)ccc54)n2)CCCC3)cc1Cl [Compound No. 1-39, 2-(1-(2-(3-Chloro-4-methoxyphenyl)-5,6,7,8-tetrahydroqiuinazolin-4-yl)indolin-5-yl)acetic acid] |
| 76 | 0.1 to 1 | – | O=C(O)Cc1ccc2c(c1)CCN2c1nc(-c2ccc(Cl)s2)nc2c1CCCC2 [Compound No. 1-50, 2-(1-(2-(5-Chlorothiophen-2-yl)-5,6,7,8-tetrahydroquinazolin-4-yl)indolin-5-yl)acetic acid] |
| 38 | – | – | COc1ccc(-c2nc3c(c(-n4ncc5cc(CC(=O)O)ccc54)n2)CCC3)cc1Cl [Compound No. 1-59, 2-(1-(2-(3-Chloro-4-methoxyphenyl)-6,7-dihydro-5H-cyclopenta[d]-pyrimidin-4-yl)-1H-indazol-5-yl)acetic acid] |
| 67 | 0.1 to 1 | – | COc1ccc(-c2nc3c(c(-n4ncc5cc(CC(=O)O)ccc54)n2)CCC3)cc1F [Compound No. 1-60, 2-(1-(2-(3-Fluoro-4-methoxyphenyl)-6,7-dihydro-5H-cyclopenta[d]-pyrimidin-4-yl)-1H-indazol-5-yl)acetic acid] |
| 82 | 0.1 to 1 | – | O=C(O)Cc1ccc2c(cnn2-c2nc(-c3ccc(Cl)s3)nc3c2CCC3)c1 [Compound No. 1-61, 2-(1-(2-(5-Chlorothiophen-2-yl)-6,7-dihydro-5H-cyclopenta[d]-pyrimidin-4-yl)-1H-indazol-5-yl)acetic acid] |
| 28 | – | – | O=C(O)Cc1ccc2c(c1)CC(=O)N2c1nc(-c2ccc(Cl)s2)nc2c1CCC2 [Compound No. 1-64, 2-(1-(2-(5-Chlorothiophen-2-yl)-6,7-dihydro-5H-cyclopenta[d]-pyrimidin-4-yl)-2-oxoindolin-5-yl)acetic acid] |
| 34 | – | – | O=C(O)Cc1ccc2c(c1)CC(=O)N2c1nc(-c2ccc(F)s2)nc2c1CCC2 [Compound No. 1-65, 2-(1-(2-(5-Fluorothiophen-2-yl)-6,7-dihydro-5H-cyclopenta[d]-pyrimidin-4-yl)-2-oxoindolin-5-yl)acetic acid] |

More lines, now with the values behind:

| Compound | inhibition at 1 µM [%] | IC50 [µM] | Inhibition at 1 μM test concentration [%] |
| --- | --- | --- | --- |
| CN(C)C(=O)COc1ccc2c(c1)N(c1nc(-c3ccc4c(c3)CCO4)nc3c1C[S+]([O-])C3)CC2 (stereo not shown) [2-153, 2-[[1-[2-(2,3-Dihydro-benzofuran-5-yl)-6-oxo-5,7-dihydro-thieno[3,4-d]pyrimidin-4-yl]-2,3-dihydro-1H-indol-6-yl]oxy]-N,N-dimethyl-acetamide] | 97 | < 0.1 | – |
| CN(C)C(=O)COc1ccc2c(c1)N(c1nc(-c3ccc4occc4c3)nc3c1C[S+]([O-])C3)CC2 (stereo not shown) [2-154, 2-[[1-[2-(Benzofuran-5-yl)-6-oxo-5,7-dihydro-thieno[3,4-d]pyrimidin-4-yl]-2,3-dihydro-1H-indol-6-yl]oxy]-N,N-dimethyl-acetamide] | 104 | < 0.1 | – |
| CN(C)C(=O)COc1ccc2c(c1)N(c1nc(-c3ccc4sccc4c3)nc3c1C[S+]([O-])C3)CC2 (stereo not shown) [2-155, 2-[[1-[2-(Benzo[b]thiophen-5-yl)-6-oxo-5,7-dihydro-thieno[3,4-d]pyrimidin-4-yl]-2,3-dihydro-1H-indol-6-yl]oxy]-N,N-dimethyl-acetamide] | 102 | < 0.1 | – |
| COc1ccc(-c2nc3c(c(N4CCc5cc(CC(=O)O)ccc54)n2)CCC3)cc1F [Compound No. 1-1, 2-(1-(2-(3-Fluoro-4-methoxyphenyl)-6,7-dihydro-5H-cyclopenta[d]-pyrimidin-4-yl)indolin-5-yl)acetic acid] | 102 | < 0.1 | – |
| COc1ccc(-c2nc3c(c(N4CCc5cc(CC(=O)O)ccc54)n2)CCC3)cc1Cl [Compound No. 1-2, 2-(1-(2-(3-Chloro-4-methoxyphenyl)-6,7-dihydro-5H-cyclopenta[d]-pyrimidin-4-yl)indolin-5-yl)acetic acid] | 91 | < 0.1 | – |
| COc1ccc(-c2nc3c(c(N4CCc5cc(CC(=O)O)ccc54)n2)CCC3)cc1 [Compound No. 1-3, 2-(1-(2-(4-Methoxyphenyl)-6,7-dihydro-5H-cyclopenta[d]pyrimidin-4-yl)indolin-5-yl)acetic acid] | 83 | < 0.1 | – |
| COc1ccc(-c2nc3c(c(N4CCc5cc(CC(=O)O)ccc54)n2)CSC3)cc1Cl [Compound No. 1-5, 2-(1-(2-(3-Chloro-4-methoxyphenyl)-5,7-dihydrothieno[3,4-d]pyrimidin-4-yl)indolin-5-yl)acetic acid] | 98 | < 0.1 | – |
| COc1ccc(-c2nc3c(c(N4CCc5cc(CC(=O)O)ccc54)n2)C[S+]([O-])C3)cc1Cl (stereo not shown) [Compound No. 1-8, 2-(1-(2-(3-Chloro-4-methoxyphenyl)-6-oxido-5,7-dihydrothieno[3,4-d]pyrimidin-4-yl)indolin-5-yl)acetic acid] | 102 | < 0.1 | – |
| O=C(O)Cc1ccc2c(c1)CCN2c1nc(-c2ccc(Cl)s2)nc2c1CCC2 [Compound No. 1-13, 2-(1-(2-(5-Chlorothiophen-2-yl)-6,7-dihydro-5H-cyclopenta[d]-pyrimidin-4-yl)indolin-5-yl)acetic acid] | 78 | < 0.1 | – |
| O=C(O)Cc1ccc2c(c1)CCN2c1nc(-c2ccc(F)s2)nc2c1CCC2 [Compound No. 1-15, 2-(1-(2-(5-Fluorothiophen-2-yl)-6,7-dihydro-5H-cyclopenta[d]pyrimidin-4-yl)indolin-5-yl)acetic acid] | 100 | < 0.1 | – |
| N#Cc1ccc(-c2nc3c(c(N4CCc5cc(CC(=O)O)ccc54)n2)CCC3)s1 [Compound No. 1-16, 2-(1-(2-(5-Cyanothiophen-2-yl)-6,7-dihydro-5H-cyclopenta[d]pyrimidin-4-yl)indolin-5-yl)acetic acid] | 95 | < 0.1 | – |
| O=C(O)Cc1ccc2c(c1)CCN2c1nc(-c2cncs2)nc2c1CCC2 [Compound No. 1-17, 2-(1-(2-(Thiazol-5-yl)-6,7-dihydro-5H-cyclopenta[d]pyrimidin-4-yl)indolin-5-yl)acetic acid] | 83 | 0.1 to 1 | – |
| O=C(O)Cc1ccc2c(c1)CCN2c1nc(-c2cc(Cl)cs2)nc2c1CCC2 [Compound No. 1-18, 2-(1-(2-(4-Chlorothiophen-2-yl)-6,7-dihydro-5H-cyclopenta[d]pyrimidin-4-yl)indolin-5-yl)acetic acid] | 92 | < 0.1 | – |
| O=C(O)Cc1ccc2c(c1)CCN2c1nc(-c2csc(Cl)c2)nc2c1CCC2 [Compound No. 1-19, 2-(1-(2-(5-Chlorothiophen-3-yl)-6,7-dihydro-5H-cyclopenta[d]pyrimidin-4-yl)indolin-5-yl)acetic acid] | 85 | < 0.1 | – |
